Experimental data published in patent publication US5498710A, “Alkyl ether analogues of benzoporphyrin derivatives” (Health Research, Inc., priority 1994, dated 1996).
Entries after “also recorded” stand apart in the source; their conditions may differ.

Legend:
SMT-F tumor [1] = assay: In vivo antitumor (photodynamic) activity, SMT-F tumors in DBA/2 mice; design: species or system DBA/2 Ha-DD mouse; conditions: for Tumor response (nonpalpable tumor), 1-2 d / Tumor response (nonpalpable tumor), 7 d / Tumor response (nonpalpable tumor), 30 d: 1.0 mg/kg i.v., light 3 h after injection; for Tumor response (nonpalpable tumor), 1-2 d: day 1-2; for Tumor response (nonpalpable tumor), 7 d: day 7; for Tumor response (nonpalpable tumor), 30 d: day 30; for antitumor / photosensitizing activity: 1.0 mg/kg, light 3 h post i.v. injection where stated; for in vivo photosensitizing efficacy / antitumor activity compared with BPD: mice, compared with BPD (mixture of 21 and 22); for tumorcidal activity: similar doses and treatment conditions
Method: Tumor Response and Foot Response Experiments: For tumor response experiments (see Table 3), a 1mm^3 piece of SMT-F tumor from a donor DBA/2 Ha-DD mouse was implanted subcutaneously with a trocar into the axilla of a 5-7 week old female DBA/2 Ha-DD mouse. When the tumor had grown to about 4mm diameter, mice were injected intravenously (i.v.) with photosensitizers at various doses. At various time after injection, mice were restrained in Plexiglas® holders and each tumor was illuminated with 135 J/cm^2 light from a dye laser 171 (spectra physics). The light dose rate was 75 mW/cm^2 as measured with a PTR Optics […]. The percentage of short term control (non-palpable tumors) was recorded daily. For our study 6 mice/group were used.
(§1) In vivo Biological Activity: The in vivo photosensitizing ability of all the sensitizers was compared with that of commercial BPD in DBA/2 mice bearing subcutaneously implanted SMT-F tumors, a method previously described by Dougherty et al. All photosensitizers, including commercial BPD (mixture of 21 and 22) were first dissolved in a minimum quantity of Tween 80 and then diluted with 0.9% saline, to a final concentration of 1% Tween 80.
(§2) It can be seen from Table 3 that commercial BPD was quite effective at a dose of 5.0 mg/kg, 3 h post i.v. injection (4 out of six mice were tumor free at day 30). […] However, replacement of the vinyl with a 1-hexyloxyethyl group induced a remarkable difference in photosensitizing activity.

SMT-F tumor [2] = assay: as above; design: species or system DBA/2 Ha-DD mouse; conditions: 5.0 mg/kg i.v., light 24 h after injection
[3] = Electronic absorption, red absorption maximum; type: physicochemical; conditions: for red shift in the absorption spectra: electron-withdrawing groups on macrocycle; for strong absorption in the red: formyl-BPDs
Method: M.p.s were measured on a Thomas/Bristoline microscopic hot stage apparatus and were uncorrected. Silica gel 60 (70-230 and 230-400 mesh, Merck) or neutral alumina (Merck; usually Brockmann Grade III, i. e., deactivated with 6% water) were used for column chromatography. Preparative thin layer chromatography was carried out on 20×20 cm glass plates coated with Merck G 254 silica gel (1 mm thick). Analytical thin layer chromatography (TLC) was performed using merck 60 F254 silica gel (precoated sheets, 0.2 mm thick). Reactions were monitored by TLC and spectrophotometry and were carried out under nitrogen and in the dark. ^1 HNMR spectra were obtained in deuteriochloroform solution at 300 MHz using a General Electric QE300 spectrometer; chemical shifts are expressed in ppm relative to chloroform (7.258 ppm). Elemental analyses were performed at the Midwest Microlab, Ltd., Indiana, USA. Unless stated otherwise, electronic absorption spectra were measured in dichloromethane solution using a Hewlett-Packard 8450A spectrophotometer. Mass spectra were obtained at the Mass Spectrometry Facility, University of California, San Francisco and at the Department of Biophysics, Roswell Park Cancer Institute, Buffalo.

[4] = Solubility of photosensitizers; type: physicochemical; conditions: Tween 80, then 0.9% saline (1% Tween 80)
Source text: as §1, §2

Row | Compound | antitumor / photosensitizing activity (SMT-F tumor [1]) | in vivo photosensitizing efficacy / antitumor activity compared with BPD (SMT-F tumor [1]) | tumorcidal activity (SMT-F tumor [1]) | further results
1 | 3-(1-Hexyloxyethyl)benzoporphyrin Derivative [Compound 35] | active; also recorded: good antitumor activity | significantly more active than the industrially prepared benzoporphyrin derivative; also recorded: better photosensitizing efficacy than benzoporphyrin derivative monocarboxylic acid; also recorded: better anti-tumor activity than BPD-MA |  | Tumor response (nonpalpable tumor), 1-2 d (SMT-F tumor [1]): 6/6; Tumor response (nonpalpable tumor), 7 d (SMT-F tumor [1]): 6/6; Tumor response (nonpalpable tumor), 30 d (SMT-F tumor [1]): 2/6
2 | 3-(1-Hexyloxyethyl)benzoporphyrin Derivative [Compound 45] | active | significantly more active than the industrially prepared benzoporphyrin derivative; also recorded: better photosensitizing efficacy than benzoporphyrin derivative monocarboxylic acid; also recorded: better anti-tumor activity than BPD-MA |  | Tumor response (nonpalpable tumor), 1-2 d (SMT-F tumor [1]): 6/6; Tumor response (nonpalpable tumor), 7 d (SMT-F tumor [1]): 4/6; Tumor response (nonpalpable tumor), 30 d (SMT-F tumor [1]): 0/6; Tumor response (nonpalpable tumor), 1-2 d (SMT-F tumor [2]; day 1-2): 6/6; Tumor response (nonpalpable tumor), 7 d (SMT-F tumor [2]; day 7): 6/6; Tumor response (nonpalpable tumor), 30 d (SMT-F tumor [2]; day 30): 0/6
3 | CCCCCCOC(C)C1=C(C)c2cc3[nH]c(cc4nc(cc5[nH]c(cc1n2)c(C)c5CCC(=O)OC)C(CCC(=O)OC)=C4C)C1(C)C3=CC=C(C(=O)OC)C1C(=O)OC (mixture of isomers) [Compound 27, 8-(1-Hexyloxyethyl)benzoporphyrin Derivative] | active; also recorded: good antitumor activity | significantly more active than the industrially prepared benzoporphyrin derivative; also recorded: better photosensitizing efficacy than benzoporphyrin derivative monocarboxylic acid; also recorded: better anti-tumor activity than BPD-MA |  | Tumor response (nonpalpable tumor), 1-2 d (SMT-F tumor [1]): 6/6; Tumor response (nonpalpable tumor), 7 d (SMT-F tumor [1]): 4/6; Tumor response (nonpalpable tumor), 30 d (SMT-F tumor [1]): 1/6; absorption maximum wavelength ([3]; maximum red absorption peak, Table 3): 676 nm
4 | COC(=O)CCC1=C(C)c2cc3[nH]c(cc4nc(cc5[nH]c(cc1n2)c(CCC(=O)OC)c5C)C(C=CC(C)C1=C(C)c2cc5[nH]c(cc6nc(cc7[nH]c(cc1n2)c(C)c7CCC(=O)OC)C(CCC(=O)OC)=C6C)C1(C)C5=CC=C(C(=O)OC)C1C(=O)OC)=C4C)C1=CC=C(C(=O)OC)C(C(=O)OC)C13C (mixture of isomers) [Compound 46, Bis-Benzoporphyrin] |  |  | did not show any significant tumorcidal activity | 
5 | C=CC1=C(C)c2cc3[nH]c(cc4nc(cc5[nH]c(cc1n2)c(C)c5CCC(=O)OC)C(CCC(=O)OC)=C4C)C1(C)C3=CC=C(C(=O)OC)C1C(=O)OC (stereo not drawn) [Compound 20, 8-vinylbenzoporphyrin Derivative] | activity similar to BPD |  |  | 
6 | COC(=O)CCC1=C(C)c2cc3[nH]c(cc4nc(cc5[nH]c(cc1n2)c(CCC(=O)OC)c5C)C(C(C)=O)=C4C)C1=CC=C(C(=O)OC)C(C(=O)OC)C13C (stereo not drawn) [Compound 23, 8-Acetylbenzoporphyrin Derivative] | inactive | failed to improve their photosensitizing efficacy | did not show any significant tumorcidal activity | red shift in the absorption spectra [3]: significant red shift in the absorption spectra; ease of dissolution [4]: difficult to dissolve
7 | CCC1=C(C)c2cc3[nH]c(cc4nc(cc5[nH]c(cc1n2)c(C)c5CCC(=O)OC)C(CCC(=O)OC)=C4C)C1(C)C3=CC=C(C(=O)OC)C1C(=O)OC (stereo not drawn) [Compound 25, 8-Ethylbenzoporphyrin Derivative] |  |  | did not show any significant tumorcidal activity | 
8 | COC(=O)CCC1=C(C)c2cc3[nH]c(cc4nc(cc5[nH]c(cc1n2)c(CCC(=O)OC)c5C)C(C=O)=C4C)C1=CC=C(C(=O)OC)C(C(=O)OC)C13C (stereo not drawn) [Compound 26, 8-Formylbenzoporphyrin Derivative] |  |  | did not show any significant tumorcidal activity | strong absorption in the red [3]: 696 nm
9 | C=CC1=C(C)c2cc3[nH]c(cc4nc(cc5[nH]c(cc1n2)C1(C)C5=CC=C(C(=O)OC)C1C(=O)OC)C(C)=C4CCC(=O)OC)c(CCC(=O)OC)c3C (stereo not drawn) [Compound 28, 3-Vinylbenzoporphyrin Derivative] | activity similar to BPD |  |  | 
10 | COC(=O)CCC1=C(C)c2cc3[nH]c(cc4nc(cc5[nH]c(cc1n2)c(CCC(=O)OC)c5C)C(C)=C4C(C)=O)C1(C)C3=CC=C(C(=O)OC)C1C(=O)OC (stereo not drawn) [Compound 31, 3 -Acetylbenzoporphyrin Derivative] | inactive | failed to improve their photosensitizing efficacy | did not show any significant tumorcidal activity | red shift in the absorption spectra [3]: significant red shift in the absorption spectra; ease of dissolution [4]: difficult to dissolve
11 | CCC1=C(C)c2cc3[nH]c(cc4nc(cc5[nH]c(cc1n2)C1(C)C5=CC=C(C(=O)OC)C1C(=O)OC)C(C)=C4CCC(=O)OC)c(CCC(=O)OC)c3C (stereo not drawn) [Compound 33, 2-Ethylbenzoporphyrin Derivative] |  |  | did not show any significant tumorcidal activity | 
12 | COC(=O)CCC1=C(C)c2cc3[nH]c(cc4nc(cc5[nH]c(cc1n2)c(CCC(=O)OC)c5C)C(C)=C4C=O)C1(C)C3=CC=C(C(=O)OC)C1C(=O)OC (stereo not drawn) [Compound 34, 3-Formylbenzoporphyrin Derivative] |  |  | did not show any significant tumorcidal activity | strong absorption in the red [3]: 696 nm
13 | C=CC1=C(C)c2cc3[nH]c(cc4nc(cc5[nH]c(cc1n2)c(C)c5CCC(=O)OC)C(CCC(=O)OC)=C4C)C1(C)C3=CC=C(C(=O)OC)C1C(=O)OC (stereo not drawn) [Compound 36, 8-Vinylbenzoporphyrin Derivative] | activity similar to BPD |  |  | 
14 | COC(=O)CCC1=C(C)c2cc3[nH]c(cc4nc(cc5[nH]c(cc1n2)c(CCC(=O)OC)c5C)C(C(C)=O)=C4C)C1=CC=C(C(=O)OC)C(C(=O)OC)C13C (stereo not drawn) [Compound 37, 8-Acetylbenzoporphyrin Derivative] | inactive | failed to improve their photosensitizing efficacy |  | red shift in the absorption spectra [3]: significant red shift in the absorption spectra; ease of dissolution [4]: difficult to dissolve
15 | C=CC1=C(C)c2cc3[nH]c(cc4nc(cc5[nH]c(cc1n2)C1(C)C5=CC=C(C(=O)OC)C1C(=O)OC)C(C)=C4CCC(=O)OC)c(CCC(=O)OC)c3C (stereo not drawn) [Compound 41, 3-Vinyl-BPD] | activity similar to BPD |  |  | 
16 | COC(=O)CCC1=C(C)c2cc3[nH]c(cc4nc(cc5[nH]c(cc1n2)c(CCC(=O)OC)c5C)C(C)=C4C(C)=O)C1(C)C3=CC=C(C(=O)OC)C1C(=O)OC (stereo not drawn) [Compound 42, 3 -Acetylbenzoporphyrin Derivative] | inactive | failed to improve their photosensitizing efficacy |  | red shift in the absorption spectra [3]: significant red shift in the absorption spectra; ease of dissolution [4]: difficult to dissolve
